As usually defined, the IC50 is the concentration that gives 50% inhibition.

Data on 16 molecules can be found in patent US11564928B1, “Cannabinoid receptor type 2 (CB2) modulators and uses thereof” (Teon Therapeutics, Inc., priority 2020, dated 2023).

SMILES strings stand for the structures. Where two headings read alike, the source gives them in different places.

For assay [1], the target named is T1, human CB2 receptor (Homo sapiens (Human), UniProt P34972). Briefly: CB2 receptor binding assay ([3H]CP-55,940 displacement, HEK-293 membranes). Conditions: membranes of HEK-293 cells with human recombinant CB2R, [3H]CP-55,940, read-out: CB2 IC50.
T1 sequence (P34972 whole entry): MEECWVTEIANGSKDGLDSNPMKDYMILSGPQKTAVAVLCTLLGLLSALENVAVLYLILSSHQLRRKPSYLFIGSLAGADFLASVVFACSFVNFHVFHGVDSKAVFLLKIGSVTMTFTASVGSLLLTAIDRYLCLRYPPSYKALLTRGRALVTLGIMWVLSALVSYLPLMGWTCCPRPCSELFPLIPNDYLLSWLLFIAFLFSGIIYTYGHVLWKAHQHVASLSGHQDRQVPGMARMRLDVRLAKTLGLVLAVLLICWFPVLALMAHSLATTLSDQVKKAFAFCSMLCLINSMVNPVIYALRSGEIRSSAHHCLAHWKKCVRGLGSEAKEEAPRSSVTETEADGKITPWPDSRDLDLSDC
The target in a further assay is human recombinant CB1R (Homo sapiens (Human), UniProt P21554). Briefly: CB1 receptor binding assay ([3H]CP-55,940 displacement, HEK-293 membranes). Conditions: membranes of HEK-293 cells with human recombinant CB1R, [3H]CP-55,940, read-out: CB1 IC50. Summed up:
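Membranes from HEK-293 cells expressing human recombinant CB1R or CB2R were incubated with [3H]CP-55,940 and compound for 120 min at 37 °C in duplicate. The CB2R incubation buffer was 50 mM Tris-HCl, 5 mM MgCl2, 1 mM CaCl2, 0.2% BSA, pH 7.4. Bound radioactivity was filtered and counted, and IC50 was converted to Ki by Cheng–Prusoff.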

Assay [2] deals with T1, human CB2 receptor. Briefly: CB2 receptor cAMP assay (DiscoverX HitHunter cAMP XS+). It is filed as cell-based. The method, then: cAMP Hunter CHO-K-1 cell lines expressing human CB2 receptor (Eurofins) were expanded from freezer stocks according to standard procedures. Cells were seeded in a total volume of 20 μL into white walled, 384-well microplates and incubated at 37° C. for the appropriate time prior to testing. cAMP modulation in agonist, inverse agonist or antagonist format was determined using the DiscoverX HitHunter cAMP XS+ assay (Eurofins). For agonist determination, cells were incubated with sample in the presence of EC80 forskolin to induce response. Media was aspirated from cells and replaced with 15 μL 2:1 HBSS/10 mM Hepes: cAMP XS+Ab reagent. Intermediate dilution of sample stocks was performed to generate 4× sample in assay buffer containing 4× EC80 forskolin. 5 μL of 4× sample was added to cells and incubated at 37° C. or room temperature for 30 or 60 minutes. Final assay vehicle concentration was 1%. For inverse agonist determination, cells were preincubated with sample in the presence of EC20 forskolin. Media was aspirated from cells and replaced with 15 μL, 2:1 HBSS/10 mM Hepes: cAMP XS+Ab reagent. Intermediate dilution of sample stocks was performed to generate 4× sample in assay buffer containing 4× EC20 forskolin. 5 μL of 4× sample was added to cells and incubated at 37° C. or room temperature for 30 or 60 minutes. Final assay vehicle concentration was 1%. For antagonist determination, cells were pre-incubated with sample followed by agonist challenge at the EC80 concentration. Media was aspirated from cells and replaced with 10 μL 1:1 HBSS/Hepes: cAMP XS+Ab reagent. 5 μL of 4× compound was added to the cells and incubated at 37° C. or room temperature for 30 minutes. 5 μL of 4× EC80 agonist was added to cells and incubated at 37° C. or room temperature for 30 or 60 minutes. EC80 forksolin was included. After appropriate compound incubation, assay signal was generated through incubation with 20 μL cAMP XS+ED/CL lysis cocktail for one hour followed by incubation with 20 μL, cAMP XS+EA reagent for three hours at room temperature. Microplates were read following signal generation with a PerkinElmer Envision instrument for chemiluminescent signal detection. Compound activity was analyzed using CBIS data analysis suite (ChemInnovation, CA). For agonist mode assay, percentage activity is calculated using the following formula: % Activity=100%×(1−(mean RLU of test sample−mean RLU of MAX control)/(mean RLU of vehicle control−mean RLU of MAX control)). For inverse agonist mode assay, percentage activity is calculated using the following formula: % Inverse Agonist Activity=100%×((mean RLU of test sample−mean RLU of EC20 forskolin)/(mean RLU of forskolin positive control−mean RLU of EC20 control)). For antagonist mode assay, percentage inhibition is calculated using the following formula: % Inhibition=100%×(mean RLU of test sample−mean RLU of EC80 control)/(mean RLU of forskolin positive control−mean RLU of EC80 control). Data are analyzed and IC50 is calculated using GraphPad Prism 5 and the model “log(inhibitor) vs. response—Variable slope”.
A general note: cAMP levels reflect the balance of adenylyl cyclase and phosphodiesterase activity.

Where [3] appears, read: CHO-K1, cAMP Hunter CHO-K-1 cells expressing human CB2 receptor, read-out: Max Stimulation %.
Where [4] appears, read: cAMP Hunter CHO-K-1 cells expressing human CB2 receptor, read-out: cAMP IC50.
Where [5] appears, read: CHO-K1, read-out: Max Stimulation %.

Chain of human recombinant CB1R (P21554 whole entry): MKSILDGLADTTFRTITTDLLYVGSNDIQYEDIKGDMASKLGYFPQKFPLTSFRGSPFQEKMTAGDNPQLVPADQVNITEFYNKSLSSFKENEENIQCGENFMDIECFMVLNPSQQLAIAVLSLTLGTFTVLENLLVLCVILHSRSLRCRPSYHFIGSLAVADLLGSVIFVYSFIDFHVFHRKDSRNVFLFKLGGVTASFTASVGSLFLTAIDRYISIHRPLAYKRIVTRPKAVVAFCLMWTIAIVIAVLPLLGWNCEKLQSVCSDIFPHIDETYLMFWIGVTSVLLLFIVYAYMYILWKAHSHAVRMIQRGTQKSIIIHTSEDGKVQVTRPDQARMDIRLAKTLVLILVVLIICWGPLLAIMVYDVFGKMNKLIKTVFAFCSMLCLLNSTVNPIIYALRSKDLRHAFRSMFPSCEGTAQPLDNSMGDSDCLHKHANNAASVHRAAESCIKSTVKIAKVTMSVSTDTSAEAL

`C[C@@H](NC(=O)c1cc2cc(-c3ccc(OC(F)F)cn3)cnc2n(CCN2CCOCC2)c1=O)c1ccc(F)cc1` [Compound 48, (R)-6-(5-(difluoromethoxy)pyridin-2-yl)-N-(1-(4-fluorophenyl)ethyl)-1-(2-morpholinoethyl)-2-oxo-1,2-dihydro-1,8-naphthyridine-3-carboxamide]: the IC50 at human CB2 receptor [1] was 4.5 nM; at human recombinant CB1R, more than 10000 nM; at human CB2 receptor [2] (setting [4]), 0.2 nM. Also, the Emax on human CB2 receptor [2] (setting [3]) came to 66%.
Turning to `COc1ccc(-c2cnc3c(c2)cc(C(=O)NC24CC(C2)C4)c(=O)n3CCN2CCOCC2)cc1` [Compound 50, N-(bicyclo[1.1.1]pentan-1-yl)-6-(4-methoxyphenyl)-1-(2-morpholinoethyl)-2-oxo-1,2-dihydro-1,8-naphthyridine-3-carboxamide], the IC50 at human CB2 receptor [1] was found to be 4.3 nM; on human recombinant CB1R it was 2780 nM; at human CB2 receptor [2], 0.6 nM. The Emax at human CB2 receptor [2] (setting [5]) was determined as 80%.
Take `CC1CCC(NC(=O)c2cc3cc(-c4ccc(OC(F)F)cc4)cnc3n(CCN3CCOCC3)c2=O)CC1` (stereo not drawn) [Compound 51, 6-(4-(difluoromethoxy)phenyl)-N-(4-methylcyclohexyl)-1-(2-morpholinoethyl)-2-oxo-1,2-dihydro-1,8-naphthyridine-3-carboxamide]: the IC50 at human CB2 receptor [1] was 2.1 nM; on human recombinant CB1R, more than 10000 nM; against human CB2 receptor [2], 2 nM. In addition, the Emax on human CB2 receptor [2] (setting [5]) is 108%.
Consider `O=C(NC1CC2(CCC2)C1)c1cc2cc(-c3ccc(OC(F)F)cc3)cnc2n(CCN2CCOCC2)c1=O` [Compound 52, 6-(4-(difluoromethoxy)phenyl)-1-(2-morpholinoethyl)-2-oxo-N-(spiro[3.3]heptan-2-yl)-1,2-dihydro-1,8-naphthyridine-3-carboxamide], for which the IC50 is 10 nM at human CB2 receptor [1], 962 nM at human recombinant CB1R and 1 nM against human CB2 receptor [2]. The Emax at human CB2 receptor [2] (setting [5]) is 77%.
As for `CC(NC(=O)c1cc2cc(-c3ccc(OC(F)F)cc3)cnc2n(CCN2CCOCC2)c1=O)c1ccc(F)cc1` (stereo not drawn) [Compound 53, 6-(4-(difluoromethoxy)phenyl)-N-(1-(4-fluorophenyl)ethyl)-1-(2-morpholinoethyl)-2-oxo-1,2-dihydro-1,8-naphthyridine-3-carboxamide], the IC50 on human CB2 receptor [1] (class symbols) is less than 100 nM; on human recombinant CB1R (class symbols), more than 1000 nM; at human CB2 receptor [2] (setting [4]), 2 nM. On human CB2 receptor [2] (setting [3]), the Emax amounted to 85%.
Regarding `CC(NC(=O)c1cc2cc(-c3ccc(OC(F)F)cn3)cnc2n(CCN2CCOCC2)c1=O)c1ccc(F)cc1` (stereo not drawn) [Compound 55, 6-(5-(difluoromethoxy)pyridin-2-yl)-N-(1-(4-fluorophenyl)ethyl)-1-(2-morpholinoethyl)-2-oxo-1,2-dihydro-1,8-naphthyridine-3-carboxamide], the IC50 was found to be 0.6 nM at human CB2 receptor [1], 2940 nM on human recombinant CB1R and 11 nM at human CB2 receptor [2] (setting [4]). The Emax on human CB2 receptor [2] (setting [3]) worked out at 84%.
Take `CC1CCC(NC(=O)c2cc3cc(-c4ccc(C#N)cn4)cnc3n(CCN3CCOCC3)c2=O)CC1` (stereo not drawn) [Compound 57, 6-(5-cyanopyridin-2-yl)-N-(4-methylcyclohexyl)-1-(2-morpholinoethyl)-2-oxo-1,2-dihydro-1,8-naphthyridine-3-carboxamide]: the IC50 on human CB2 receptor [1] (class symbols) was less than 100 nM; at human recombinant CB1R (class symbols), more than 1000 nM; against human CB2 receptor [2] it was 8 nM. The Emax on human CB2 receptor [2] (setting [5]) worked out at 63%.
With `N#Cc1ccc(-c2cnc3c(c2)cc(C(=O)NC24CC(C2)C4)c(=O)n3CCN2CCOCC2)nc1` [Compound 59, N-(bicyclo[1.1.1]pentan-1-yl)-6-(5-cyanopyridin-2-yl)-1-(2-morpholinoethyl)-2-oxo-1,2-dihydro-1,8-naphthyridine-3-carboxamide], the values for the IC50 at human CB2 receptor [1], at human recombinant CB1R and on human CB2 receptor [2] (setting [4]) were 130 nM, more than 10000 nM and 119 nM, respectively. Besides, the Emax on human CB2 receptor [2] (setting [5]) turned out to be 75%.
In the case of `CC1CCC(NC(=O)c2cc3cc(Br)cnc3n(CCN3CCOCC3)c2=O)CC1` (stereo not drawn) [Compound 61, 6-bromo-N-(4-methylcyclohexyl)-1-(2-morpholinoethyl)-2-oxo-1,2-dihydro-1,8-naphthyridine-3-carboxamide], the half-maximal inhibitory concentration (IC50) is less than 100 nM at human CB2 receptor [1] (class symbols), more than 1000 nM at human recombinant CB1R (class symbols) and 13 nM against human CB2 receptor [2]. Also, the Emax on human CB2 receptor [2] (setting [5]) was determined as 83%.
In the case of `CC1CCC(NC(=O)c2cc3cc(-c4ccccn4)cnc3n(CCN3CCOCC3)c2=O)CC1` (stereo not drawn) [Compound 62, N-(4-methylcyclohexyl)-1-(2-morpholinoethyl)-2-oxo-6-(pyridin-2-yl)-1,2-dihydro-1,8-naphthyridine-3-carboxamide], the concentration for half-maximal inhibition (IC50) on human CB2 receptor [1] (class symbols) was less than 100 nM; on human recombinant CB1R (class symbols), more than 1000 nM; against human CB2 receptor [2], 13 nM. Moreover, the Emax at human CB2 receptor [2] (setting [5]) is 33%.
As for `CC1CCC(NC(=O)c2cc3cc(-c4ncccn4)cnc3n(CCN3CCOCC3)c2=O)CC1` (stereo not drawn) [Compound 63, N-(4-methylcyclohexyl)-1-(2-morpholinoethyl)-2-oxo-6-(pyrimidin-2-yl)-1,2-dihydro-1,8-naphthyridine-3-carboxamide], the 50% inhibitory concentration (IC50) at human CB2 receptor [1] (class symbols) was less than 100 nM; at human recombinant CB1R (class symbols) it was more than 1000 nM; on human CB2 receptor [2] (setting [4]) it was more than 1000 nM.
As for `N#Cc1ccc(-c2cnc3c(c2)cc(C(=O)NC2CC4(CCC4)C2)c(=O)n3Cc2ccc(F)cc2)nc1` [Compound 69, 6-(5-cyanopyridin-2-yl)-1-(4-fluorobenzyl)-2-oxo-N-(spiro[3.3]heptan-2-yl)-1,2-dihydro-1,8-naphthyridine-3-carboxamide], the IC50 on human CB2 receptor [1] (class symbols) is less than 100 nM; on human recombinant CB1R (class symbols), more than 1000 nM; against human CB2 receptor [2] it was 21 nM. Moreover, the Emax at human CB2 receptor [2] (setting [5]) stood at 79%.
The corresponding values for `O=C(NC12CC(C1)C2)c1cc2cc(Br)cnc2n(Cc2ccc(F)cc2)c1=O` [Compound 82, N-(bicyclo[1.1.1]pentan-1-yl)-6-bromo-1-(4-fluorobenzyl)-2-oxo-1,2-dihydro-1,8-naphthyridine-3-carboxamide] are less than 100 nM, more than 1000 nM, 1 nM and 86%.
`O=C(NC12CC(C1)C2)c1cc2cc(C3CC3)cnc2n(Cc2ccc(F)cc2)c1=O` [Compound 83, N-(bicyclo[1.1.1]pentan-1-yl)-6-cyclopropyl-1-(4-fluorobenzyl)-2-oxo-1,2-dihydro-1,8-naphthyridine-3-carboxamide]: the results for the IC50 at human CB2 receptor [1] (class symbols), on human recombinant CB1R (class symbols) and on human CB2 receptor [2] were less than 100 nM, more than 1000 nM and 5 nM, respectively. Besides, at human CB2 receptor [2] (setting [5]), the Emax was 93%.
With `CC(C)c1cnc2c(c1)cc(C(=O)N[C@H](C)c1ccc(C#N)cc1)c(=O)n2Cc1ccc(F)cc1` [Compound 85, (R)—N-(1-(4-cyanophenyl)ethyl)-1-(4-fluorobenzyl)-6-isopropyl-2-oxo-1,2-dihydro-1,8-naphthyridine-3-carboxamide], the IC50 was 7.9 nM at human CB2 receptor [1], 605 nM on human recombinant CB1R and 0.5 nM against human CB2 receptor [2]. Moreover, at human CB2 receptor [2] (setting [5]), the Emax amounted to 93%.
Take `CC(C)c1cnc2c(c1)cc(C(=O)N[C@H](C)c1ccc(F)cc1)c(=O)n2Cc1ccc(F)cc1` [Compound 89, (R)-1-(4-fluorobenzyl)-N-(1-(4-fluorophenyl)ethyl)-6-isopropyl-2-oxo-1,2-dihydro-1,8-naphthyridine-3-carboxamide]: the IC50 is less than 100 nM on human CB2 receptor [1] (class symbols), more than 1000 nM at human recombinant CB1R (class symbols) and 7 nM on human CB2 receptor [2]. In addition, the Emax at human CB2 receptor [2] (setting [5]) came to 92%.
